Here are results for two compounds from paper PMC9254149 (RSC Advances, 2022).

What all share (format): cell-based, human
Data set [1] deals with IR-HepG2 cells. The data set can be described thus: Glucose consumption in IR-HepG2 cells. The settings on record: 24 h.
The test system of data set [2] is HepG2 cells. The data set is described as follows: Cell viability by CCK-8 method. The settings on record: Homo sapiens, HepG2, 24 h, read-out: IC50 (cell viability).
Data set [3] in a line: Cell viability by CCK-8 method. As to conditions: human, HepG2 cells. On the technique in general: Formazan colour is commonly taken as a measure of viable cells.

Molecules are shown by their SMILES.

Turning to `CC(C)=CCCC(C)(O)C(O)CCC(C)CCO` (stereo not drawn) [Compound 3, 2,6,10-trimethyl-6,7,12-trihydroxy-dodec-2-ene], the Glucose consumption in data set [1] (2.5 μM) came to 2.06 ± 1.27 mM. Also, the Glucose consumption in data set [1] (5.0 μM) came to 2.43 ± 0.67 mM. The Glucose consumption in data set [1] (10.0 μM) is recorded as 2.66 ± 0.56 mM. In addition, in data set [1] (12.5 μM), the Glucose consumption was 2.86 ± 0.71 mM. This compound displayed a Glucose consumption in data set [1] (15 μM) of 2.44 ± 0.60 mM. In data set [2], the IC50 (usually the midpoint of a concentration-inhibition curve) stood at 34 µM. For the same compound, in data set [3], the viability (in general, a read-out of living cells in per cent, often relative to untreated cells) at 24 h, 10 µM came to 94.8 ± 1.94%; the viability at 24 h, 20 µM is 83.5 ± 3.68%; the viability at 24 h, 30 µM is 60.3 ± 3.33%; the viability at 24 h, 40 µM stood at 36.3 ± 1.62%. The compound also yielded a viability at 24 h, 50 µM in data set [3] of 33.4 ± 1.9%.

The compound `C[C@@H]1O[C@@H](O[C@H]2[C@H](O[C@H]3CC[C@@]4(C)[C@@H](CC[C@]5(C)[C@@H]4CC=C4[C@@H]6CC(C)(C)CC[C@]6(C(=O)O)CC[C@]45C)[C@]3(C)CO)OC[C@H](O)[C@@H]2O)[C@H](O)[C@H](O)[C@H]1O` [Compound 5, α-hederin] showed a Glucose consumption in data set [1] (2.5 μM) of 6.31 ± 0.96 mM. Further, in data set [1] (10.0 μM), the Glucose consumption is on record as 7.75 ± 0.84 mM. Moreover, the Glucose consumption in data set [1] (12.5 μM) is recorded as 8.97 ± 0.37 mM. This compound also came in with a Glucose consumption in data set [1] (15 μM) of 9.99 ± 0.95 mM. In addition, the IC50 in data set [2] was above 50 µM. Also, in data set [3], the viability at 24 h, 10 µM amounted to 98.57 ± 0.57%; the viability at 24 h, 20 µM was determined as 93.4 ± 1.23%; the viability at 24 h, 30 µM was found to be 89.4 ± 1.16%; the viability at 24 h, 40 µM was determined as 76.1 ± 1.73%. In data set [3], the viability at 24 h, 50 µM turned out to be 73.3 ± 2.58%.
